Consider 6 compounds from US5104880A, “Huperzine a analogs as acetylcholinesterase inhibitors” (Mayo Foundation for Medical Education and Research, priority 1991, dated 1992).

For data set [1], the system named is AChE. The settings on record: vs (±)-huperzine A; cited from earlier work.
In another data set the test system is animals. The settings on record: studies performed in China; cited from earlier work.
In another data set the test system is mice. The settings on record: cited from earlier work.
The test system of the next data set is squirrel monkeys. The settings on record: cited from earlier work.
The subject of the next data set is myasthenia gravis. The settings on record: 128 patients; cited from earlier work.
Data set [2] deals with T1, AChE (Rattus norvegicus, UniProt P37136).
T1 construct: from tissue; host or cells: rat hippocampus, crude homogenate (P2 synaptosome-rich fraction)
T1 sequence (P37136 32-614): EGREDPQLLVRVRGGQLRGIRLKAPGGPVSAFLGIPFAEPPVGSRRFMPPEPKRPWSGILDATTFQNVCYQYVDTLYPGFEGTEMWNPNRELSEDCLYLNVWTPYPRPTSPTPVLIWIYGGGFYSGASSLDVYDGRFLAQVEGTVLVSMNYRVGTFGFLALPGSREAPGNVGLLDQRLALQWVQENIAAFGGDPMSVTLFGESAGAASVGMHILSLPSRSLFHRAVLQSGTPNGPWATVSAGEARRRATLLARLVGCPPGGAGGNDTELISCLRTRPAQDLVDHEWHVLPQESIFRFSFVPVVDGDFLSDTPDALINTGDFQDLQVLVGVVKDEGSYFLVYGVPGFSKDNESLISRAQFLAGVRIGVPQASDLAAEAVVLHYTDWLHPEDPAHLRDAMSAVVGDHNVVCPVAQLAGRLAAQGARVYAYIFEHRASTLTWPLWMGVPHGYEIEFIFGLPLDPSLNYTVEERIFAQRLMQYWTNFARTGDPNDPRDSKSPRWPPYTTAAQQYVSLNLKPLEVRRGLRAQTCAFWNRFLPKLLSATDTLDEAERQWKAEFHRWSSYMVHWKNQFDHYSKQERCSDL
The data set is described as follows: biochemical. The protocol:
*Assayed using rat hippocampal crude homogenates over a concentration
in 10% DMSO made up in the incubation buffer medium. In addition, those
hydrochloric acid and sonicated briefly until they dissolved in the
solution. In each case, the control medium always consisted of the same
ingredients as those which were used to dissolve the compound under
The activity of these new compounds was assayed using AChE isolated from rat brain. […] Rats were killed by decapitation and the brains were extirpated rapidly. […] Homogenates were centrifuged at 1000×g for 10 min to remove cell nuclei and heavy debris. […] A portion of this synaptosome-rich fraction was added in triplicate to ice-cold pH 7.4 Krebs-Ringer medium.
Assay of AChE was carried out according to the method described in C. […] Tissue homogenate was incubated for 30 min at 30° C. in a final volume of […] containing 75 mM sodium phosphate buffer, pH 7.0, and 1.5 mM [^14 C]acetylcholine (1.9 mCi/mmol). […] The tubes were vortexed for 10 sec, then centrifuged for 1 min. The bottom aqueous layer was quickly frozen in a dry ice/acetone bath, and the top organic layer aspirated off. Finally, the buffer was allowed to thaw, and a 25 μl portion was counted for the amount of [^14 C]acetate formed. The amount of residual [^14 C]acetylcholine left in the buffer by the extraction step alone was determined by subtracting from the tissue sample values of [^14 C]acetylcholine measured in a blank sample that contained buffer and substrate, but no tissue.

For data set [3], the system named is AChE. The settings on record: as AChE inhibitors for treatment of AD; cited from earlier work.
A further data set concerns Alzheimer's Disease. The settings on record: cited from earlier work.
Data set [4] deals with AChE. The settings on record: 0.65 mg/kg i.m.; cited from earlier work.
The conditions of data set [5]: 0.65 mg/kg i.m.; cited from earlier work.

Like-named read-outs stand apart in the source and are kept apart here.

Consider `C/C=C1\C2C=C(C)CC1(CN)c1ccc(=O)[nH]c1C2` (stereo not shown), for which the “times less potent than (±)-huperzine A as an inhibiter of AChE” value in the data set on AChE [1] is on record as “about 166 times”.

Regarding `CC=C1C2C=C(C)CC1(N)c1ccc(=O)[nH]c1C2` (single isomer, unassigned; (-)) [Compound 1a, (-)-Huperzine A], in the data set with animals, the memory and learning entry is “improve memory and learning in animals”. The cognition enhancement result in the data set with mice and in the data set with squirrel monkeys was “effective cognition enhancer” in each case. Besides, in the data set on myasthenia gravis, the “control of the clinical manifestations of myasthenia gravis (cases)” value was 99%.

Consider `CC=C1C2CCCC1(N)c1ccc(=O)[nH]c1C2` (stereo not shown) [Compound 3, C15 -desmethyl-(C8 -C15)dihydrohuperzine], for which the IC50 (as a rule, the concentration at which inhibition is half-maximal) on AChE [2] (AChE isolated from rat brain, read-out: IC50 value (AChE)) worked out at 1.3e-05 M. Moreover, at AChE [2] (considering the racemic nature of compound 3), the “fold less potent than natural huperzine A” value is “at least fifty-fold”.

As to `CC1=CC2Cc3[nH]c(=O)ccc3C(N)(C1)/C2=C/Cl` (stereo not shown) [Compound 13, 11-DESMETHYL-11-CHLORO-HUPERZINE A], the half-maximal inhibitory concentration (IC50) against AChE [2] (AChE IC50 (M)*, Table I, rat hippocampal crude homogenates, 10^-11 M to 10^-3 M, 10% DMSO in buffer) was 8.09e-07 M.

As to `CC1=C[C@H]2Cc3[nH]c(=O)ccc3[C@]3(C1)NCCC[C@H]23` [huperzine B], the memory and learning result in the data set on animals was “improve memory and learning in animals”. The “comparison with THA and physostigmine” value in the data set with AChE [3] was “appear superior to THA and physostigmine”.

As for `CNC(=O)Oc1ccc2c(c1)[C@]1(C)CCN(C)[C@@H]1N2C` [physostigmine], the cognitive improvement result in the data set on Alzheimer's Disease is recorded as “modest cognitive improvement”. Also, the “maximal duration of action (AChE inhibitory action)” value in the data set with AChE [4] is listed as ≤ 60 min. In addition, the side effects entry in [5] was “causes considerable side effects”.
